The subject of one assay is C2C12 myotubes. Put plainly: [3H]2-deoxy-D-glucose uptake in C2C12 myotubes. It is filed as cell-based. The following applies: 0.1, 1 or 10 nM for 30 min prior to insulin 10 nM. How it is done:
FIG. 3a-l: Urocortin 2 effects on muscle glucose uptake are mediated by inhibition of insulin signaling. (a-f). Ucn 2 inhibits the insulin-induced Akt and ERK1/2 phosphorylation but not the insulin receptor phosphorylation. Differentiated C2C12 myotubes were pre-incubated with or without Ucn 2 peptide (0.1, 1 or 10 nM) for 1 hour prior to insulin treatment (10 nM, 5 min). Cell lystates were resolved using 4-12% gradient polyacrylamide gels. Gels were electrophorectically transferred to membranes and probed with antibodies specific for the phospho proteins pAkt (Ser 473), pERK1/2 or pIR (Tyr1146). Stimulation of Akt, ERK or insulin receptor (IR) activation was calculated by fold activation of the phosphorylated form normalized to total and compared with the untreated controls (a, d and f, graphs). […] (g-j) Ucn 2 treatment increases the phosphorylation of serine residue 307 and not the tyrosin phosphorylation of IRS-1. Myotube cells, treated with or without PKA inhibitor (H-89), were incubated with insulin and different concentrations of Ucn 2. […] Glucose uptake was measured 5 min following exposure to [^3H]2-deoxy-D-glucose. Non-specific uptake was measured by incubating muscle tissue with cytochalasin B, which binds to the glucose uptake transporter (GLUT) and inhibits glucose transport into the cell. Specific uptake was calculated by subtracting non specific from total glucose. […]

Assay [1] concerns Ucn 2 null mice. Put plainly: Insulin tolerance test (ITT) in Ucn 2 null mice. It is filed as in vivo, mouse. The conditions noted are these: fasted male Ucn 2 null mice; 0.1 μg/kg IP 20 min prior to insulin 0.75 U/kg. As to the method:
(§1) FIG. 1a-f: Metabolic phenotype of Ucn 2 null mice. […] The ability of the Ucn 2 null mice and wild type littermates to handle a glucose load was assessed using a standard glucose tolerance test (see example 1). Fasted male mice were injected intraperitoneally (IP) with glucose (2 g/kg body weight) and blood glucose levels were measured before and at 15, 30, 60, 90 and 120 min following glucose injection. […] Fasted male Ucn 2 null mice were injected IP with saline or with 0.1 μg/kg body weight Ucn 2, 20 min prior to glucose injection (2 g/kg body weight) and blood glucose levels were measured before and at 15, 30, 60 and 90 min following glucose injection. […] Fasted male wild type mice were injected IP with saline or with astressin2B (30 μg/kg body weight), 20 min prior to glucose injection (2 g/kg body weight), and blood glucose levels were measured before and at 15, 30, 60 and 90 min following glucose injection. (d) The enhanced glucose tolerance in the Ucn 2 null mice is not due to increased insulin secretion. Fasted male mice were injected with glucose (3 g/kg body weight, IP) and blood samples were collected at 2, 5, 15 and 30 min following glucose injection and insulin was measured by radioimmunoassay. […] Fasted male mice were injected with insulin (0.75 U/kg body weight, IP) and blood glucose levels were measured before and at 15, 30, 60 and 90 min following insulin injection. […]

Assay [2] concerns Ucn 2 null mice. Put plainly: Glucose tolerance test (GTT) in Ucn 2 null mice. It is filed as in vivo, mouse. The following applies: fasted male Ucn 2 null mice; 0.1 μg/kg IP 20 min prior to glucose 2 g/kg. As to the method:
as §1

For assay [3], the system named is insulin signaling in C2C12 myotubes. In words: Phosphorylation studies of insulin signaling in C2C12 myotubes. It is filed as cell-based. As to the method: FIG. 3a-l: Urocortin 2 effects on muscle glucose uptake are mediated by inhibition of insulin signaling. (a-f). Ucn 2 inhibits the insulin-induced Akt and ERK1/2 phosphorylation but not the insulin receptor phosphorylation. Differentiated C2C12 myotubes were pre-incubated with or without Ucn 2 peptide (0.1, 1 or 10 nM) for 1 hour prior to insulin treatment (10 nM, 5 min). Cell lystates were resolved using 4-12% gradient polyacrylamide gels. Gels were electrophorectically transferred to membranes and probed with antibodies specific for the phospho proteins pAkt (Ser 473), pERK1/2 or pIR (Tyr1146). Stimulation of Akt, ERK or insulin receptor (IR) activation was calculated by fold activation of the phosphorylated form normalized to total and compared with the untreated controls (a, d and f, graphs). […] (g-j) Ucn 2 treatment increases the phosphorylation of serine residue 307 and not the tyrosin phosphorylation of IRS-1. Myotube cells, treated with or without PKA inhibitor (H-89), were incubated with insulin and different concentrations of Ucn 2. IRS-1 immunoprecipitated proteins were electrophoresed as before and the immunoblots were probed for phosphorylated tyrosin (g), phosphorylated serine 307 IRS-1 (i) and total IRS-1 (g, i). […] (k) The effect of Ucn 2 on [^3H]2-deoxy-D-glucose uptake in differentiated C2C12 myotubes. Cells were incubated for 2 hours in low glucose, serum free medium and treated with Ucn 2 (0.1, 1 or 10 nM) or without (control) for 30 min prior to insulin administration (10 nM). Glucose uptake was measured 5 min following exposure to [^3H]2-deoxy-D-glucose. Non-specific uptake was measured by incubating muscle tissue with cytochalasin B, which binds to the glucose uptake transporter (GLUT) and inhibits glucose transport into the cell. Specific uptake was calculated by subtracting non specific from total glucose. (l) Schematic representation of the putative cellular mechanisms mediating the effect of Ucn 2 and CRFR2 on the insulin signaling and glucose uptake in skeletal muscle cells. * indicates p<0.05 vs. no treatment. # indicates p<0.05 vs. insulin treatment (b, d, f) or p<0.05 vs. insulin treatment and Ucn 2 (i).
Differentiated C2C12 myotubes were pre-incubated with or without Ucn 2 peptide (0.1, 1 or 10 nM) for 1 hour prior to insulin treatment (10 nM, 5 min). Cells were harvested immediately in 100 μl of sample treatment buffer [STB, 50 mM Tris (pH 6.8), 100 mM dithiothreitol, 2% (wt/vol) sodium dodecyl sulfate, 0.1% (wt/vol) bromphenol blue, and 10% (wt/vol) glycerol]. The samples were boiled for 5 min, proteins were electrophoresed on 4-12% sodium dodecyl sulfate-polyacrylamide gradient gel (Invitrogen Life Technologies), subsequently transferred onto nitrocellulose membranes, and probed with antibodies specific for phosphorylated Akt (Ser 473, Cell Signaling Technology, Inc., Beverly, Mass.), phosphorylated ERK1/2-p42, 44 (Santa Cruz Biotechnology, Inc., Santa Cruz, Calif.), phosphorylated insulin receptor (Tyr 1146, Cell Signaling Technology, Inc.), or phosphorylated IRS1 (Ser 307, Upstate Cell Signaling Solutions, Lake placid, NY). The membranes were washed with phosphate buffer saline containing 0.05% (vol/vol) Tween 20 and incubated with horseradish peroxidase-conjugated anti mouse or rabbit IgG raised in sheep (Amersham Biotech Pharmacia). Immunoreactive proteins were visualized using Super Signal West Pico Chemiluminescent substrate (Pierce, Rockford, Ill.). The relative protein levels were determined using densitometry (Image quant 1.2) by probing the membranes with antibodies directed against total proteins.

The mark [4] stands for this setting: 0.1, 1 or 10 nM for 1 hour prior to insulin 10 nM, 5 min.
Setting [5] is: IRS-1 immunoprecipitates, insulin and Ucn 2.

The values below come from US7815905B2, “Methods of increasing insulin sensitivity or decreasing insulin secretion by administering corticotropin releasing factor receptor-2 inhibitors” (Research Development Foundation, priority 2006, dated 2010).

“Also recorded” adds a separate entry of the source. Ends that are not written are not given here.

Regarding “Ucn 2: Urocortin 2, member of the CRF family, CRFR2 agonist; synthetic peptide (IVLSLDVPIGLLQILLEQARARAAREQATTNARILARVGHC; ends and bridges not checked; UniProt Q96RP3 72-112, looked up)”, in the assay on C2C12 myotubes, the “insulin induced glucose uptake” value is “reduces; also recorded: dose dependently inhibited”. Moreover, the “blood glucose in insulin tolerance test” value in the assay on Ucn 2 null mice [1] is listed as “restored blood glucose levels to those of wild type mice; also recorded: restores blood glucose to wild type levels”. Further, the “blood glucose in glucose tolerance test” value in the assay with Ucn 2 null mice [2] was “restores blood glucose to wild type levels”. In addition, in assay [3] (setting [4]), the “insulin-induced ERK1/2 phosphorylation” value is recorded as “reduces; also recorded: inhibited; also recorded: dose dependently inhibits”, the “insulin-induced phosphorylation of Akt (Ser 473)” value is on record as “reduces; also recorded: inhibits the insulin-induced phosphorylation of Akt in a dose dependent fashion; also recorded: dose dependently inhibits” and the “insulin-induced phosphorylation of the insulin receptor (Tyr1146)” value is “no significant differences”. Besides, in assay [3] (setting [5]), the “phosphorylation of IRS-1 on serine residue 307” value is listed as “greatly increases; also recorded: strongly increases” and the “tyrosine phosphorylation of IRS-1 in response to insulin” value is listed as “remains unchanged”.
